Laboratory results published in paper PMC10412597, “Small molecule branched-chain ketoacid dehydrogenase kinase (BDK) inhibitors with opposing effects on BDK protein levels” (Nature Communications, 2023).

What was measured:
Set-up in all cases: Invitrogen kinase panel, per cent inhibition of kinase activity
Conditions in all cases: 10 µM, inhibitor
[1] = biological target: ROCK2 (Homo sapiens, UniProt O75116)
Procedure: (§1) To discover a potent and selective BDK inhibitor, a subset of the Pfizer compound collection was screened. […] Off target activity was assessed in both CEREP and kinase panels (Supplementary Tables 2, 3).

[2] = biological target: ABL1 (Homo sapiens, UniProt P00519)
Procedure: as §1

[3] = biological target: CAMK1 (Homo sapiens, UniProt Q14012)
Procedure: as §1

[4] = biological target: PIK3CB (Homo sapiens, UniProt P42338)
Procedure: as §1

[5] = biological target: CSK tyrosine Kinase (Homo sapiens, UniProt P41240)
Procedure: as §1

[6] = biological target: INSR (Homo sapiens, UniProt P06213)
Procedure: as §1

[7] = biological target: PAK4 (Homo sapiens, UniProt O96013)
Procedure: as §1

[8] = biological target: SPHK1 (Homo sapiens, UniProt Q9NYA1)
Procedure: as §1

[9] = biological target: CHEK2 (Homo sapiens, UniProt O96017)
Procedure: as §1

[10] = biological target: SRC (Homo sapiens, UniProt P12931)
Procedure: as §1

[11] = biological target: mTOR (Homo sapiens, UniProt P42345)
Procedure: as §1

[12] = biological target: T1, STK3 (Homo sapiens, UniProt Q13188)
T1 sequence (Q13188 1-491): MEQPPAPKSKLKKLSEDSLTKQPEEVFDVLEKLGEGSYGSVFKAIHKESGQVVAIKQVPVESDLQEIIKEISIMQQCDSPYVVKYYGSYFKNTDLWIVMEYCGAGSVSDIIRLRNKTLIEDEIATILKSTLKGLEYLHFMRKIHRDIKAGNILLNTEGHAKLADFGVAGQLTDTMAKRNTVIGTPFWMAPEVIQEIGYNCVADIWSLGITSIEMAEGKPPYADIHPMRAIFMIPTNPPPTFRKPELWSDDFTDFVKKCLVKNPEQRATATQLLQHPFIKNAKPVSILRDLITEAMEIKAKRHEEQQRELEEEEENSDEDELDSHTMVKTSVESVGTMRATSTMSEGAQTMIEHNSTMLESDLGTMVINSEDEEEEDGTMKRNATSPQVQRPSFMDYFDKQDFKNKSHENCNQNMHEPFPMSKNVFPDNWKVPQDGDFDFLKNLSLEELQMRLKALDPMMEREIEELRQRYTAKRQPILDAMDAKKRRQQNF
Procedure: as §1

[13] = biological target: T2, TAOK2 (Homo sapiens, UniProt Q9UL54)
T2 sequence (Q9UL54 1-1235): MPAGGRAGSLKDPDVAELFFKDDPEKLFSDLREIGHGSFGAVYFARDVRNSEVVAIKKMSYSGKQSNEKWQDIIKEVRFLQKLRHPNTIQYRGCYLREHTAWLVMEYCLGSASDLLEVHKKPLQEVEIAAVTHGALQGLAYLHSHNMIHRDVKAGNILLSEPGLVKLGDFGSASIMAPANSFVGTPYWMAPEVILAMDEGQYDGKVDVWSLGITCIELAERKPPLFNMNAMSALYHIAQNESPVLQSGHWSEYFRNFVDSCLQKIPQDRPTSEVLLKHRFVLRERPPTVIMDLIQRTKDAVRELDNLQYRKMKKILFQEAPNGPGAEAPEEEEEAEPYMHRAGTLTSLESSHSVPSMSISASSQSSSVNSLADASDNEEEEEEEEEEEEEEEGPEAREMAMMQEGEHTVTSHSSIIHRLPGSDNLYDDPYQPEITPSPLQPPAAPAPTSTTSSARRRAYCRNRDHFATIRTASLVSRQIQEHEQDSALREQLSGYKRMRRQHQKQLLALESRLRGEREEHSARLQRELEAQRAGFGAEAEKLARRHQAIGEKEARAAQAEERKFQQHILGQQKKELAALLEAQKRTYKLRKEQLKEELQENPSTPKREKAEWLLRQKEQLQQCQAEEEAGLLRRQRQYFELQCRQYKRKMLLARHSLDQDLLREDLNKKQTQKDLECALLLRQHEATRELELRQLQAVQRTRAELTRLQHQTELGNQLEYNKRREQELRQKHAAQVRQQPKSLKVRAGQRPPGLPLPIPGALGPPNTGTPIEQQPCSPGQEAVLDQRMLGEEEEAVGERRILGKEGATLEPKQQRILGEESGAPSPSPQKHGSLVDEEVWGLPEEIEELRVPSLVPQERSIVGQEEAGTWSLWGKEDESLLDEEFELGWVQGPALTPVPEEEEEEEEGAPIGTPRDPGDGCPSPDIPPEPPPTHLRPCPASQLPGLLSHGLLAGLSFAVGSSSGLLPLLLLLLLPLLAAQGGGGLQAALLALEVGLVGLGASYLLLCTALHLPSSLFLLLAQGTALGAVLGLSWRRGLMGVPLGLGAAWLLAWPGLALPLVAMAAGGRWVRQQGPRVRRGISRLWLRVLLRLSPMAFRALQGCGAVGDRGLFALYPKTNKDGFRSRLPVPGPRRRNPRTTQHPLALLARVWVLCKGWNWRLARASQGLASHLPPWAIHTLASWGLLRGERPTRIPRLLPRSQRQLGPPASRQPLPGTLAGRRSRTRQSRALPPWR
Procedure: as §1

Chain of PAK4 (O96013 whole entry): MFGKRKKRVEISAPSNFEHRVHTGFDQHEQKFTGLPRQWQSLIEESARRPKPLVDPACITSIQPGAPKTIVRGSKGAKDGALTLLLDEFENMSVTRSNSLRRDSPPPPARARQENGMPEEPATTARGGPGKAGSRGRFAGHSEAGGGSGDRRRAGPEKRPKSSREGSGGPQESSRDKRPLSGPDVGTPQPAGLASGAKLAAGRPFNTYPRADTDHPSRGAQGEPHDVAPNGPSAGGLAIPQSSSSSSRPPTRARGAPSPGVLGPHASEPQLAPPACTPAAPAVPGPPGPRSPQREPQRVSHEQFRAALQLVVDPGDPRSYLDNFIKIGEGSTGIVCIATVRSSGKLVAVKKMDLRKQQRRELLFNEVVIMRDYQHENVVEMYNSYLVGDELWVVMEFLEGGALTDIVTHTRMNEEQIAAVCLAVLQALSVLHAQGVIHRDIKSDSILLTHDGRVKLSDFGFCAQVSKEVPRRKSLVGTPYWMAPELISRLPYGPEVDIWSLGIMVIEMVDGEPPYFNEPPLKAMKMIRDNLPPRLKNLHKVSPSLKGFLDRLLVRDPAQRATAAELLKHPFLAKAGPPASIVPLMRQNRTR
Chain of CHEK2 (O96017 whole entry): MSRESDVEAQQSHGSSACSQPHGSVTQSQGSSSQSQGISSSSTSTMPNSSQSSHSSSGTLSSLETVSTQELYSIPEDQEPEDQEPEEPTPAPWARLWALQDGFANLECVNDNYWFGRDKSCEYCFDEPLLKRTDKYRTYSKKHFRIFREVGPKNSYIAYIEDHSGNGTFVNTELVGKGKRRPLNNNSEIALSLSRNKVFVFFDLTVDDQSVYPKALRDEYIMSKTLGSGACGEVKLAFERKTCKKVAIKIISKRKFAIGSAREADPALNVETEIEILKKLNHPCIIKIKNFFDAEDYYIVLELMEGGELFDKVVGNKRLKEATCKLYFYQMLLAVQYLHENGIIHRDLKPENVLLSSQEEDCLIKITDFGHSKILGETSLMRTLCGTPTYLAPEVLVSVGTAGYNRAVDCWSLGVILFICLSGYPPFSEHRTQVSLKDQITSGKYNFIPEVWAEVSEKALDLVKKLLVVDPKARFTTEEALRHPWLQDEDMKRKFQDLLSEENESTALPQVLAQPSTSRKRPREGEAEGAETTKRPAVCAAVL
Chain of INSR (P06213 whole entry): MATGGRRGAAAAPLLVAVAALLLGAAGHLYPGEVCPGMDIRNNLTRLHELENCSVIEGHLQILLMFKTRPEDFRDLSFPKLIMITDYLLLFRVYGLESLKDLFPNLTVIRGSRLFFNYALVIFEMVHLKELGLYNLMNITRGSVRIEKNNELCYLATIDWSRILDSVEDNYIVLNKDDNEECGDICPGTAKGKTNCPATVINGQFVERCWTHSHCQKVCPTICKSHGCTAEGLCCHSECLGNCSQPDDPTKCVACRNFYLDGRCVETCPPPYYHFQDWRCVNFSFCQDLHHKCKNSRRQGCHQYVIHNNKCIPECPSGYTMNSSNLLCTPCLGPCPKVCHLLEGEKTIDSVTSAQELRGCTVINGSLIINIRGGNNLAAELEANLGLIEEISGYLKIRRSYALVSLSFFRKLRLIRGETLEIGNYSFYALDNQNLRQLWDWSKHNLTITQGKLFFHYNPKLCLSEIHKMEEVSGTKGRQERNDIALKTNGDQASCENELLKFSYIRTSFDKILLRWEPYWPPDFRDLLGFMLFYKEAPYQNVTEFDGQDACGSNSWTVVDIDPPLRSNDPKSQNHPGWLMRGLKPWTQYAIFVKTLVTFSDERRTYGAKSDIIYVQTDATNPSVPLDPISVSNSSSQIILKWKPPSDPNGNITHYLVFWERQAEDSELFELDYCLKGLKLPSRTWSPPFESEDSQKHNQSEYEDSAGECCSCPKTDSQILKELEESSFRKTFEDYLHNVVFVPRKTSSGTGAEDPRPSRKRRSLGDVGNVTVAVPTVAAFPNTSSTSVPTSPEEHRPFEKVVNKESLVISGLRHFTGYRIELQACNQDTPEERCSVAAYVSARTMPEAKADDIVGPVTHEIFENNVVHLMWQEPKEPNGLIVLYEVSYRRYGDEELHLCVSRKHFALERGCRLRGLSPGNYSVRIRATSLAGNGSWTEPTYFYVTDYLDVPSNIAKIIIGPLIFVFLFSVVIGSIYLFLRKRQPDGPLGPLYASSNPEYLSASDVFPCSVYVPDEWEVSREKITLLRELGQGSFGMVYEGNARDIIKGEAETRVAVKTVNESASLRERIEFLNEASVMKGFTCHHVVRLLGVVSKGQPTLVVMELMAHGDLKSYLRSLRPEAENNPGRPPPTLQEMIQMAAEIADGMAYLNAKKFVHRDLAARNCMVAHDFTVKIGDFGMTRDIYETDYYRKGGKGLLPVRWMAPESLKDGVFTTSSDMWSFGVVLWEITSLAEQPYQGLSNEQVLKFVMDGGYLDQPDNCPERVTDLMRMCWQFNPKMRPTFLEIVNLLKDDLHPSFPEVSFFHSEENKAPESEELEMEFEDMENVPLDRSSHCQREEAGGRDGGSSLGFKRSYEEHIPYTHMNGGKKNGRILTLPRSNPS
Chain of ABL1 (P00519 whole entry): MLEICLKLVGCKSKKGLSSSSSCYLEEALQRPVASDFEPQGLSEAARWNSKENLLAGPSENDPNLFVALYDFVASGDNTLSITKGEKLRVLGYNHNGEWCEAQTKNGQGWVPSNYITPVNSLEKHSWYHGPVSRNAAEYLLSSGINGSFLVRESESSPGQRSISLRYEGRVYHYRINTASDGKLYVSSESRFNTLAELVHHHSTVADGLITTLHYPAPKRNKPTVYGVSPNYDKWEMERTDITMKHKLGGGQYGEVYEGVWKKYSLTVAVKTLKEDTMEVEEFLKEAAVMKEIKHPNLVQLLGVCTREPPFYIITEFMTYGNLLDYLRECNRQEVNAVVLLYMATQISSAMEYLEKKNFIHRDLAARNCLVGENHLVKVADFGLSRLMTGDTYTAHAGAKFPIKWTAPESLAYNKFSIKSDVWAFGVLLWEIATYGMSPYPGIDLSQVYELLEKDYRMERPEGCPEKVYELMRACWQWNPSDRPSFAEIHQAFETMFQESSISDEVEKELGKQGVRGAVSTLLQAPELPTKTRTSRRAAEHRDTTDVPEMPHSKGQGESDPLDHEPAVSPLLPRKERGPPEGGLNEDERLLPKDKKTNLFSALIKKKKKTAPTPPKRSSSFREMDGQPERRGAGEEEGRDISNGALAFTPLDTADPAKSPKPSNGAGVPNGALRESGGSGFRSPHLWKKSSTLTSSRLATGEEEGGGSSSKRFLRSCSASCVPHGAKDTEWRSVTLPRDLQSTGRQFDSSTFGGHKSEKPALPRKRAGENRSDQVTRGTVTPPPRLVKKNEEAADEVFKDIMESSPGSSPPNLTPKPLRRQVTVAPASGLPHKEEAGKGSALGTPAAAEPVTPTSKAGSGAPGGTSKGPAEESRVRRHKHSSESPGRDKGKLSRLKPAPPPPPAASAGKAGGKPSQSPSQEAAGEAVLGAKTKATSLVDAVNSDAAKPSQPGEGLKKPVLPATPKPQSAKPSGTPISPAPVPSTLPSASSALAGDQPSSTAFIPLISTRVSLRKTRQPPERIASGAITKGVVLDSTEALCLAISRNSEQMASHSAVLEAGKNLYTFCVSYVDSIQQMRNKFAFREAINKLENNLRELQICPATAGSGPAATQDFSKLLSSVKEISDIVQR
Chain of SRC (P12931 whole entry): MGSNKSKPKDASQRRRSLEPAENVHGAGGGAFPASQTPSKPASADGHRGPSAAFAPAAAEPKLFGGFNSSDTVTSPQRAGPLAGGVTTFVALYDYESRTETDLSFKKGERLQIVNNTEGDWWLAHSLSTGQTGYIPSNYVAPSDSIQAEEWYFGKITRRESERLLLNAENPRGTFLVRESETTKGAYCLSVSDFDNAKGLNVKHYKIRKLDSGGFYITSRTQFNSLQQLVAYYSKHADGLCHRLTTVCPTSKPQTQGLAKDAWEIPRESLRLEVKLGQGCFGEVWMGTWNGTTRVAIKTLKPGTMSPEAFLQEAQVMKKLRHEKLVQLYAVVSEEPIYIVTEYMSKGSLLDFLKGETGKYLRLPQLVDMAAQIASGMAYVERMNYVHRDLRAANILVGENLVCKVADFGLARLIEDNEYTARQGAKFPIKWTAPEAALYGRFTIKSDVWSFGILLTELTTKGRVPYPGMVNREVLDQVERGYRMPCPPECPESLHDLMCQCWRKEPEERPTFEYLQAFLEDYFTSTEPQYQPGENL
Chain of CSK tyrosine Kinase (P41240 whole entry): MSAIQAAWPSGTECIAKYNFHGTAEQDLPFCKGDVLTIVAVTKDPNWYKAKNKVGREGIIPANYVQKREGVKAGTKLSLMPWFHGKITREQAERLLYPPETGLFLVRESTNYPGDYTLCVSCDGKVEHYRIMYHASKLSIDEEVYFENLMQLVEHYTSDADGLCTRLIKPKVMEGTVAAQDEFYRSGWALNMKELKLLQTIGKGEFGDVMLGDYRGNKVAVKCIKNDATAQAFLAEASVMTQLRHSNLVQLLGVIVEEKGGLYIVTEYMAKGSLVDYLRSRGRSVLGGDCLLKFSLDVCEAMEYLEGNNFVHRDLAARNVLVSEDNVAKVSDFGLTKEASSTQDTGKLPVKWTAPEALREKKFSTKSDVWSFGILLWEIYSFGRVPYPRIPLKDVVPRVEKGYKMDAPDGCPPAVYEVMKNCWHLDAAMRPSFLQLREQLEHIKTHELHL
Chain of SPHK1 (Q9NYA1 whole entry): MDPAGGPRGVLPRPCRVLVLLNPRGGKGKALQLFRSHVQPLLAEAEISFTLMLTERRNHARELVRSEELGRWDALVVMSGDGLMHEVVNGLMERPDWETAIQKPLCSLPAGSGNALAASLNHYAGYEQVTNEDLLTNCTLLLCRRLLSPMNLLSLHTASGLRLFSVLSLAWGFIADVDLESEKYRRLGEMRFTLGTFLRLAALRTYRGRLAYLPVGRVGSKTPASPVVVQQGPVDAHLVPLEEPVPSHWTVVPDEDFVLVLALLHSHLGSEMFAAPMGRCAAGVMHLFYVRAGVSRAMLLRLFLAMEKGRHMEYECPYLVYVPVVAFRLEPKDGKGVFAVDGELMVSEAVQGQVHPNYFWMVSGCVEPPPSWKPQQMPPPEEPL

## CCC1(COc2ccc(-c3csc(-c4ccccc4C(=O)O)n3)cn2)CC1 [PF-07247685, 2-(4-{6-[(1-ethylcyclopropyl)methoxy]pyridin-3-yl}-1,3-thiazol-2-yl)benzoic acid]
[1]
  ATP = Km % Inhibition PF-07247685: 5.5%
[2]
  ATP = 1 mM % Inhibition PF-07247685: 0.9%
  ATP = Km % Inhibition PF-07247685: 5.1%
[3]
  ATP = 100 uM % Inhibition PF-07247685: -5.1%
[4]
  ATP = Km % Inhibition PF-07247685: -3.5%
[5]
  ATP = Km % Inhibition PF-07247685: 4.3%
[6]
  ATP = 1 mM % Inhibition PF-07247685: -0.4%
  ATP = Km % Inhibition PF-07247685: 3.4%
[7]
  ATP = 1 mM % Inhibition PF-07247685: 3.7%
  ATP = Km % Inhibition PF-07247685: 8.3%
[8]
  ATP = Km % Inhibition PF-07247685: -82.5%
[9]
  ATP = 1 mM % Inhibition PF-07247685: -0.2%
  ATP = Km % Inhibition PF-07247685: 3.8%
[10]
  ATP = 1 mM % Inhibition PF-07247685: -1.0%
  ATP = Km % Inhibition PF-07247685: 17.3%
[11]
  ATP = Km % Inhibition PF-07247685: 0.4%
[12]
  ATP = 1 mM % Inhibition PF-07247685: -7.6%
  ATP = Km % Inhibition PF-07247685: -1.8%
[13]
  ATP = 1 mM % Inhibition PF-07247685: -1.8%
  ATP = Km % Inhibition PF-07247685: -4.7%

## O=C(O)c1sc2cc(F)sc2c1Cl [PF-07208254, 3-chloro-5-fluorothieno[3,2-b]thiophene-2-carboxylic acid]
[1]
  ATP = Km % Inhibition PF-07208254: -5.8%
[2]
  ATP = 1 mM % Inhibition PF-07208254: -0.5%
  ATP = Km % Inhibition PF-07208254: 9.0%
[3]
  ATP = 100 uM % Inhibition PF-07208254: -7.9%
[4]
  ATP = Km % Inhibition PF-07208254: 3.1%
[5]
  ATP = Km % Inhibition PF-07208254: 2.9%
[6]
  ATP = 1 mM % Inhibition PF-07208254: 0.0%
  ATP = Km % Inhibition PF-07208254: 3.1%
[7]
  ATP = 1 mM % Inhibition PF-07208254: 0.9%
  ATP = Km % Inhibition PF-07208254: 6.0%
[8]
  ATP = Km % Inhibition PF-07208254: -15.9%
[9]
  ATP = 1 mM % Inhibition PF-07208254: -0.7%
  ATP = Km % Inhibition PF-07208254: 6.7%
[10]
  ATP = 1 mM % Inhibition PF-07208254: -4.8%
  ATP = Km % Inhibition PF-07208254: 5.6%
[11]
  ATP = Km % Inhibition PF-07208254: 5.1%
[12]
  ATP = 1 mM % Inhibition PF-07208254: -2.3%
  ATP = Km % Inhibition PF-07208254: 5.5%
[13]
  ATP = 1 mM % Inhibition PF-07208254: 1.4%
  ATP = Km % Inhibition PF-07208254: -2.5%
